Test results as given in patent US20090047368A1, “Polymeric polyphenol extracted from fermented tea, therapeutic agent for mitochondrial disease, preventive/therapeutic agent for diabetes mellitus, and food or beverage” (University Of Tsukuba, priority 2004, published 2009).

Tested on: B6 mice (C57BL)
Assay: Blood glucose in B6 mice, high- versus low-molecular-weight polyphenols
Assay type: in vivo
Settings: 0.27 mg/day intraperitoneal, 15 days
Procedure: The procedures for the experiment were similar to those employed in Example 7. In this experiment, B6 mice (C57BL; purchased from CLEA Japan, Inc.) were used. […] The low-molecular-weight polyphenol group was given a PBS solution of epicatechin daily through intraperitonal injection at a dose of 0.27 mg/day. Blood samples were collected on the first day of the administration and 15 days thereafter for the measurement of blood glucose levels. […] The horizontal axis in the figure represents the number of days from the start of the administration. The vertical axis represents percentage (%) changes in blood glucose based on the blood glucose level on the first day at 100.

Oc1cc(O)c2c(c1)O[C@H](c1ccc(O)c(O)c1)[C@H](O)C2 [low-molecular-weight polyphenols, epicatechin]
decrease in blood glucose relative to the first day (100): little change
